pEC50: −log10 of the molar value. ≈ marks a conversion by molar mass, not a printed value.
How the values were obtained:
[1] = biological target: T1, human soluble guanylate cyclase alpha 1 and beta 1 subunits (sGC) (Homo sapiens, UniProt Q02108+Q02153); assay: sGC cellular activator assay (cGMP, HTRF); assay type: cell-based; settings: CHO cells stably expressing human sGC alpha 1/beta 1, preincubated with 40 microM ODQ; cGMP readout; assay run with and without 50% human serum, Table 2 does not say which
T1 construct: expressed in transfected cells; host or cells: Chinese hamster ovary (CHO) cells, stably transfected
T1 sequence (Q02108 1-690): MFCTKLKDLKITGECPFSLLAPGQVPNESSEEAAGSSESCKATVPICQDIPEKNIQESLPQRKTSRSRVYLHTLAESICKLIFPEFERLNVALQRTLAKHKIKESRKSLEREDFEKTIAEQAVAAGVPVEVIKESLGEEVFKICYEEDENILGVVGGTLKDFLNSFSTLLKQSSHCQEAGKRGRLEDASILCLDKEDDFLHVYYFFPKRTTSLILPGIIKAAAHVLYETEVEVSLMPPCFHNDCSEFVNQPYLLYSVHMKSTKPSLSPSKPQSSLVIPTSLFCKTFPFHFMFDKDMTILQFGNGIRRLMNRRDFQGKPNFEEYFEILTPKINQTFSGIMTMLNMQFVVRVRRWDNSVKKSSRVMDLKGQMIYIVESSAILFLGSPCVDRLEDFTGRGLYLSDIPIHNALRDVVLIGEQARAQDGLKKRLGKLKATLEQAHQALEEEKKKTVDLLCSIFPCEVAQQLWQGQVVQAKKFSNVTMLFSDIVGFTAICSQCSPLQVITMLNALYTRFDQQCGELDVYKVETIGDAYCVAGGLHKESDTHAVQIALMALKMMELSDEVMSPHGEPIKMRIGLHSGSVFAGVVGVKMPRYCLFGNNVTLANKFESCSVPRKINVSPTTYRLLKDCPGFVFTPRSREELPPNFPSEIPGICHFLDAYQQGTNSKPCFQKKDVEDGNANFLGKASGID
T1 sequence (Q02153 1-619): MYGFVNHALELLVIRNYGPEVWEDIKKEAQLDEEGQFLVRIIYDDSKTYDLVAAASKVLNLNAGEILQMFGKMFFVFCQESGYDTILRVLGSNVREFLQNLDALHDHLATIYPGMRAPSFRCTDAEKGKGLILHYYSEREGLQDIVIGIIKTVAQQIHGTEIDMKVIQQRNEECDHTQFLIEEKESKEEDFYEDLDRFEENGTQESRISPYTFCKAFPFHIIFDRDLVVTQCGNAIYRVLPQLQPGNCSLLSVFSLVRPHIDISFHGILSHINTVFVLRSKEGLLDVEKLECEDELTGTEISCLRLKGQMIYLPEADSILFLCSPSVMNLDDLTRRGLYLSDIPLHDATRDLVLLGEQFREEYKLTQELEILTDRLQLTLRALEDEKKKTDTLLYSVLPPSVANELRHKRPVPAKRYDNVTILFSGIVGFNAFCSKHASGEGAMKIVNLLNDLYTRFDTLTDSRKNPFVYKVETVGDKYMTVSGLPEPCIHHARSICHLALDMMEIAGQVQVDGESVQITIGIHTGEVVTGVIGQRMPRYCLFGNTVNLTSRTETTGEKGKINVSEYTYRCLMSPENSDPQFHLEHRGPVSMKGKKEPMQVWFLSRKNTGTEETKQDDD
Summary of the method: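 Heme-oxidized conditions: ODQ (40 microM, 1 h) pretreatment of CHO cells stably expressing human α1/β1 sGC, in buffer containing 0.1% BSA and IBMX.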

[2] = Assessment of solubility (McIlvaine buffers, 24 h shake, UPLC-UV); assay type: physicochemical; settings: kinetic from dmso stock
Summary of the method: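 Compounds from 10 mM DMSO stocks were shaken for 24 h at room temperature in McIlvaine buffers at pH 2.2, 4.5 and 6.8 (2.5% v/v DMSO final), then filtered. Filtrates were quantified by UPLC-UV at 254 nm against a 50:50 acetonitrile/water reference assumed fully dissolved, as a single determination.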

SMILES	pEC50 [1]	solubility at 24 h ([2]; pH 2.2, aqueous buffer)	solubility at 24 h ([2]; pH 4.5, aqueous buffer)	solubility at 24 h ([2]; pH 6.8, aqueous buffer)
COc1c(C(=O)O)cnn1-c1cccc(-c2cccc(C)c2OCc2ccc3c(c2Cl)CCN(C2COC2)C3)n1 [Compound 17]	7.74	97 µg/mL (≈ 173 µM)	62 µg/mL (≈ 111 µM)	85 µg/mL (≈ 152 µM)
COc1c(C(=O)O)cnn1-c1cccc(-c2cccc(C)c2OCc2ccc3c(c2Cl)CCN(CC2(C)COC2)C3)n1 [Compound 19]	7.77	96 µg/mL (≈ 163 µM)	70 µg/mL (≈ 119 µM)	75 µg/mL (≈ 127 µM)
COc1c(C(=O)O)cnn1-c1cccc(-c2cccc(C)c2OCc2ccc3c(c2Cl)CCN(C2CCC2)C3)n1 [Compound 20]	7.62	95 µg/mL (≈ 170 µM)	72 µg/mL (≈ 129 µM)	68 µg/mL (≈ 122 µM)
COc1c(C(=O)O)cnn1-c1cccc(-c2cccc(C)c2OCc2ccc3c(c2Cl)CCN(CC(C)(C)C)C3)n1 [Compound 21]	7.77	96 µg/mL (≈ 167 µM)	62 µg/mL (≈ 108 µM)	60 µg/mL (≈ 104 µM)
COc1c(C(=O)O)cnn1-c1cccc(-c2cccc(C)c2OCc2ccc3c(c2Cl)CCN(C2CCOC2)C3)n1 (centres unmarked) [Compound 22]	7.85	97 µg/mL (≈ 169 µM)	68 µg/mL (≈ 118 µM)	73 µg/mL (≈ 127 µM)
COCC(C)N1CCc2cc(COc3c(C)cccc3-c3cccc(-n4ncc(C(=O)O)c4OC)n3)ccc2C1 (centres unmarked) [Compound 23]	7.28	99 µg/mL (≈ 182 µM)	79 µg/mL (≈ 146 µM)	82 µg/mL (≈ 151 µM)
COc1c(C(=O)O)cnn1-c1cccc(-c2cccc(C)c2OCc2ccc3c(c2)CCN(CC2CC2)C3)n1 [Compound 24]	7.27	95 µg/mL (≈ 181 µM)	76 µg/mL (≈ 145 µM)	76 µg/mL (≈ 145 µM)
COc1c(C(=O)O)cnn1-c1cccc(-c2cccc(C)c2OCc2ccc3c(c2)CCN(CC2CC(F)(F)C2)C3)n1 [Compound 26]	8.30	100 µg/mL (≈ 174 µM)	80 µg/mL (≈ 139 µM)	80 µg/mL (≈ 139 µM)
COc1c(C(=O)O)cnn1-c1cccc(-c2cccc(C)c2OCc2ccc3c(c2C)CCN(CC2CC(F)(F)C2)C3)n1 [Compound 29]	8.46	110 µg/mL (≈ 187 µM)	79 µg/mL (≈ 134 µM)	78 µg/mL (≈ 133 µM)
COc1c(C(=O)O)cnn1-c1cccc(-c2cc(C)cc(C)c2OCc2ccc3c(c2C)CCN(C2CCOCC2)C3)n1 [Compound 180]	7.55	100 µg/mL (≈ 172 µM)	79 µg/mL (≈ 136 µM)	76 µg/mL (≈ 130 µM)
COc1c(C(=O)O)cnn1-c1cccc(-c2cccc(C)c2OCc2cc(C)c3c(c2)CCN(C2COC2)C3)n1 [Compound 186]	7.80	110 µg/mL (≈ 203 µM)	83 µg/mL (≈ 154 µM)	99 µg/mL (≈ 183 µM)
CCOc1c(C(=O)O)cnn1-c1cccc(-c2cccc(C)c2OCc2ccc3c(c2C)CCN(C[C@@H]2CCOC2)C3)n1 [Compound 189]	7.92	89 µg/mL (≈ 153 µM)	73 µg/mL (≈ 125 µM)	75 µg/mL (≈ 129 µM)
CCOc1c(C(=O)O)cnn1-c1cccc(-c2cccc(C)c2OCc2ccc3c(c2C)CCN(C[C@H]2CCOC2)C3)n1 [Compound 193]	7.92	100 µg/mL (≈ 172 µM)	80 µg/mL (≈ 137 µM)	73 µg/mL (≈ 125 µM)
CCOc1c(C(=O)O)cnn1-c1cccc(-c2cccc(C)c2OCc2ccc3c(c2C)CCN(C2CCOCC2)C3=O)n1 [Compound 194]	7.06	0.68 µg/mL (≈ 1.14 µM)	2.5 µg/mL (≈ 4.19 µM)	78 µg/mL (≈ 131 µM)
CCOc1c(C(=O)O)cnn1-c1cccc(-c2cccc(C)c2OCc2ccc3c(c2C)CCN(C(C)COC)CC3)n1 (centres unmarked) [Compound 196]	7.89	89 µg/mL (≈ 152 µM)	77 µg/mL (≈ 132 µM)	85 µg/mL (≈ 145 µM)

Further compounds by rising pEC50 [1], results first:

pEC50 [1]	solubility at 24 h ([2]; pH 2.2, aqueous buffer)	solubility at 24 h ([2]; pH 4.5, aqueous buffer)	solubility at 24 h ([2]; pH 6.8, aqueous buffer)	SMILES
6.43	110 µg/mL (≈ 188 µM)	81 µg/mL (≈ 139 µM)	81 µg/mL (≈ 139 µM)	COc1ccc(OCc2ccc3c(c2C)CCN(C2CCOCC2)C3)c(-c2cccc(-n3ncc(C(=O)O)c3OC)n2)c1 [Compound 182]
7.21	110 µg/mL (≈ 193 µM)	87 µg/mL (≈ 153 µM)	88 µg/mL (≈ 155 µM)	COc1c(C(=O)O)cnn1-c1cccc(-c2cc(C)cc(C)c2OCc2ccc3c(c2)CCN(C2CCOCC2)C3)n1 [Compound 181]
7.52	100 µg/mL (≈ 167 µM)	83 µg/mL (≈ 139 µM)	82 µg/mL (≈ 137 µM)	CCOc1c(C(=O)O)cnn1-c1cccc(-c2cccc(C)c2OCc2ccc3c(c2C)CCN(CC2COCCO2)C3)n1 (stereo in doubt) [Compound 185, 1-{6-[2-(2-(S)-1-[1,4]Dioxan-2-ylmethyl-5-methyl-1,2,3,4-tetrahydro-isoquinolin-6-ylmethoxy)-3-methyl-phenyl]-pyridin-2-yl}-5-ethoxy-1H-pyrazole-4-carboxylic acid]
7.55	110 µg/mL (≈ 203 µM)	88 µg/mL (≈ 163 µM)	90 µg/mL (≈ 166 µM)	COc1c(C(=O)O)cnn1-c1cccc(-c2cccc(C)c2OCc2ccc3c(c2)CCN(C2CCOC2)C3)n1 (centres unmarked) [Compound 15]
7.64	95 µg/mL (≈ 176 µM)	71 µg/mL (≈ 131 µM)	81 µg/mL (≈ 150 µM)	COc1c(C(=O)O)cnn1-c1cccc(-c2cccc(C)c2OCc2ccc3c(c2C)CCN(C2COC2)C3)n1 [Compound 16]
7.64	100 µg/mL (≈ 168 µM)	83 µg/mL (≈ 139 µM)	87 µg/mL (≈ 146 µM)	CCOc1c(C(=O)O)cnn1-c1cccc(-c2cccc(C)c2OCc2ccc3c(c2C)CCN(CC2(C)COC2)CC3)n1 [Compound 190]
7.80	91 µg/mL (≈ 169 µM)	38 µg/mL (≈ 70.5 µM)	39 µg/mL (≈ 72.4 µM)	COc1c(C(=O)O)cnn1-c1cccc(-c2cccc(C)c2OCc2ccc3c(c2)CCN(CC2CCC2)C3)n1 [Compound 25]
7.85	110 µg/mL (≈ 193 µM)	88 µg/mL (≈ 155 µM)	90 µg/mL (≈ 158 µM)	COc1c(C(=O)O)cnn1-c1cccc(-c2cccc(C)c2OCc2ccc3c(c2C)CCN(C2CCOCC2)C3)n1 [Compound 27]
7.89	110 µg/mL (≈ 193 µM)	83 µg/mL (≈ 146 µM)	90 µg/mL (≈ 158 µM)	COc1c(C(=O)O)cnn1-c1cccc(-c2cccc(C)c2OCc2ccc3c(c2C)CCN(CC2(C)COC2)C3)n1 [Compound 28]
7.92	89 µg/mL (≈ 153 µM)	76 µg/mL (≈ 130 µM)	76 µg/mL (≈ 130 µM)	COc1c(C(=O)O)cnn1-c1cccc(-c2cccc(C)c2OCc2ccc3c(c2C)CCN(C2CCOCC2)CC3)n1 [Compound 184]
8.07	89 µg/mL (≈ 160 µM)	77 µg/mL (≈ 139 µM)	73 µg/mL (≈ 132 µM)	COc1c(C(=O)O)cnn1-c1cccc(-c2cccc(C)c2OCc2ccc3c(c2)CCN(C[C@@H]2CCOC2)C3)n1 [Compound 188]
8.10	110 µg/mL (≈ 187 µM)	86 µg/mL (≈ 146 µM)	90 µg/mL (≈ 153 µM)	COc1c(C(=O)O)cnn1-c1cccc(-c2cccc(C)c2OCc2ccc3c(c2Cl)CCN(C2CCOCC2)C3)n1 [Compound 18]
8.33	110 µg/mL (≈ 189 µM)	83 µg/mL (≈ 142 µM)	80 µg/mL (≈ 137 µM)	CCOc1c(C(=O)O)cnn1-c1cccc(-c2cccc(C)c2OCc2cc(C)c3c(c2)CCN([C@@H]2CCCOC2)C3)n1 [Compound 195]
8.48	100 µg/mL (≈ 176 µM)	85 µg/mL (≈ 149 µM)	80 µg/mL (≈ 141 µM)	COc1c(C(=O)O)cnn1-c1cccc(-c2cccc(C)c2OCc2ccc3c(c2C)CCN(C[C@@H]2CCOC2)C3)n1 [Compound 191]

Reference: US8906904B2, “Alkoxy pyrazoles as soluble guanylate cyclase activators” (Boehringer Ingelheim International GmbH, priority 2012, dated 2014)
